According to patent publication US6423855B1, “Cytoprotective compounds” (Virginia Commonwealth University, priority 1996, dated 2002):

Columns and labels:
[1] = therapeutic index LD50/ED50
[2] = system: human NP-homogenate induced paw edema; assay: nucleus pulposus (NP)-induced mouse paw edema; type: in vivo
Procedure: Human NP-homogenate was prepared according to the following protocol and stored frozen until use. Human vertebral discs were thawed and the tissue pieces were washed twice with isotonic saline. Tissue samples were homogenized in a minimum volume of isotonic saline using a Brinkman homogenizer. This homogenate was filtered through two layers of cheesecloth and the resultant filtrate was subjected to Dounce homogenization. This homogenate was again filtered through two layers of cheesecloth and the filtrate was capable of passing through a 26-gauge needle; 50 ul of the filtrate was administered to each mouse paw.
The filtrate contained 1.57 mg/ml of protein and its PLA2 activity was 12.8% hydrolysis of 10 nmols of E.coli phospholipid/10 ul filtrate/30 min. incubation at 37° C. Therefore, each mouse paw received 78.5 ug NP filtrate. This sample of 78,500 ng total protein contained approximately 4.3 ng NP PLA2 protein. By comparison, we use 500-2000 ng of highly purified PLA2 to induce edema in this mouse model; and under these experimental conditions the maximal edema achieved is 160% of the contralateral paw minus 4-7% edema due to saline injection alone.
The data are expressed as percent of contralateral paw and as percent of maximal edema achieved with purified PLA2. Fifty ul (78.5 ug) was injected into the paw 30 min. after the mice were treated with PX-13 in HEPES administered IP or by gavage at 30 or 60 mg/kg. After 3 hrs,the paws were excised and weighed.

[3] = system: human blood cells; assay: preservation of whole blood (LDH and hemoglobin release); type: cell-based
Procedure: The effect of PX-13 and mepacrine on whole blood cell viability were tested as a function of time of storage.
Heparinized human blood was centrifuged at 400×g and the resulting plasma was removed and replaced with an equal volume of Dulbecco's medium. The resuspended cells were then incubated at 37° C. for 0-72 hrs. in a shaking water bath. At the indicated times, a 0.8 ml aliquot was removed and centrifuged at 400×g to sediment cells. Appearance of lactate dehydrogenase (LDH) and hemoglobin in the supernate was indicative of cell injury. PX-13 and mepacrine stabilized cells and decreased the injury as evidenced by diminished levels of LDH and hemoglobin in the supernate. This is expressed as percent protection.

[4] = system: mice; assay: acute toxicity (LD50 study), single IP dose; type: in vivo
Procedure: An LD50 study was conducted to determine a lethal dose for PX-13 suspended in HEPES buffer at a pH of 7.4. A single IP dose of 50, 100, 200 or 400 mg/kg was administered to mice (n=6 per group). […] No necropsy was performed.

[5] = system: pancreatin; assay: degradation in vitro by pancreatin; type: in vitro ADME; conditions: commercial pancreatic enzyme preparation (Sigma)
Text: The compounds of the present invention are not generally hydrolyzed by pancreatic enzymes and are different from glycerol-based compounds in terms of their chemistry and metabolism. […] The resistance of PX-13 and PX-18 to metabolism by pancreatic enzymes supports their stability after oral administration.

[6] = system: epidermis cell turnover; assay: cell turnover rate (dansyl chloride); type: in vivo, human
Procedure: Two PX compounds PX-11 and PX-13 were evaluated in a cream formulation prepared under GMP. The chemicals were formulated into a bland cream and evaluated in the following human or mouse skin tests: (1) occluded patch test for irritation; (2) cell turnover rate; (3) transepidermal water loss; (4) skin moisturization; and (5) reduction in erythema after induced sunburn. The human skin tests were conducted on three volunteer female subjects, ages 29-32; a cream base with no added active was included as a control, while the untreated skin served as an additional basis for evaluation. Sunburn tests were performed on a total of 30 hairless albino mice. 2. Cell turnover rate: This parameter was measured by adsorption of dansyl chloride, in which 3% dansyl chloride was incorporated into petrolatum. This salve was applied over a 2.5 cm diameter circular area in the upper arm and a patch applied. 24 hours later the patch was removed. The intensity of dansyl chloride fluorescence was indicative of the cell turnover rate in the epidermis.

[7] = system: purified human disc PLA2 induced paw edema; assay: human disc PLA2-induced mouse paw edema; type: in vivo
Procedure: Edema was induced by injection of 1 ug of purified human disc PLA2 into the mouse footpad. PX-13 was administered either by gavage or intraperitoneally (IP) 60 min prior to enzyme challenge. Forty-five min after enzyme injection, the animals were sacrificed and the control and injected paws were removed and weighed to assess edema.

[8] = system: PLA2 activity in extracts of rat bowel; assay: PLA2 activity in extracts of rat bowel; type: biochemical
[9] = system: reflex sympathetic dystrophy (RSD); assay: topical cream in patients with reflex sympathetic dystrophy; type: in vivo, human
Procedure: A patient presents with severe RSD characterized by persistent pain and limitation of movement at the wrist joint. […] Another patient presents with a two year history of RSD in the knee joint. This patient previously received arthroscopic evaluations. This patient also had limited range of motion and became addicted to narcotics in an attempt to reduce pain. […] The reduction in pain is immediate and the increased range of motion occurs within 10-20 minutes. This patient, who had been unemployed for an extended period, eliminated intake of narcotics and returned to work. A third patient presented with RSD of the foot and ankle. This patient had no eversion or inversion of the foot.

[10] = small bowel storage in perfusate solution, tissue weight; design: species or system rat; conditions: 24 and 48 hours in the perfusate solution
Procedure: These drugs were also tested for their ability to enhance the preservation of tissues stored for subsequent transplantation. […] The graft was then transplanted into rats with or without intravenous (IV) infusion of 20 mg/kg PX-13 or mepacrine at the time of transplantation.

[11] = patient 2, knee, cream combined with sympathetic blockade

CCCCCCCC/C=C\CCCCCCCC(=O)OCC(COC(=O)CCCCCCC/C=C\CCCCCCCC)(COC(=O)CCCCCCC/C=C\CCCCCCCC)NCCS(=O)(=O)O [PX-13, 2-[Tris(oleoyloxymethyl)methylamino]-1-ethanesulfonic acid]
therapeutic index (LD50/ED50) [1]: a large positive number
Percent Edema ([2]; Gavage 30 mg/kg): 122 ± 5.6%
Percent Edema ([2]; Gavage 60 mg/kg): 118 ± 2.0%
Percent of Maximal ([2]; Gavage 60 mg/kg): 22%
Percent Inhibition ([2]; Gavage 60 mg/kg, 60 mg/kg): 36%
Percent Inhibition ([2]; IP 30 mg/kg): 24%
Percent of Maximal ([2]; IP 30 mg/kg, maximal edema with purified PLA2 = 54%): 26%
Percent Edema ([2]; IP 30 mg/kg, percent of contralateral paw, 3 hrs): 120 ± 2.0%
Percent Edema ([2]; IP 60 mg/kg): 115 ± 1.6%
Percent of Maximal ([2]; IP 60 mg/kg): 17%
Percent Inhibition ([2]; IP 60 mg/kg, 60 mg/kg): 50%
Percent Protection Hemoglobin ([3]; 20 uM, 48 hr): 55%
Percent Protection LDH ([3]; 20 uM, 48 hr, 37° C.): 22%
Percent Protection Hemoglobin ([3]; 20 uM, 72 hr): 25%
Percent Protection LDH ([3]; 20 uM, 72 hr): 15%
Percent Protection Hemoglobin ([3]; 80 uM, 48 hr): 72%
Percent Protection LDH ([3]; 80 uM, 48 hr): 39%
Percent Protection Hemoglobin ([3]; 80 uM, 72 hr): 54%
Percent Protection LDH ([3]; 80 uM, 72 hr): 41%
Percent Protection Hemoglobin ([3]; 160 uM, 48 hr): 77%
Percent Protection LDH ([3]; 160 uM, 48 hr): 78%
Percent Protection Hemoglobin ([3]; 160 uM, 72 hr): 80%
Percent Protection LDH ([3]; 160 uM, 72 hr): 72%
deaths at 144 hrs ([4]; 400 mg/kg group, n=6): one animal in the 400 mg/kg group died
tolerability ([4]; mouse, in vivo): extremely well tolerated
degradation in vitro by pancreatin [5]: resistant to degradation
Days to Cell Renewal Treated ([6]; cream-treated skin, upper arm): 21.6 days
% Change in Cell Turnover Time ([6]; treated vs untreated skin): −29%
Percent Protection ([7]; 20 mg/kg gavage, 60 min prior to enzyme, paws weighed 45 min after): 33%
Percent Protection ([7]; 40 mg/kg IP): 48%
Percent Protection ([7]; 40 mg/kg gavage): 55%
Percent Protection ([7]; 60 mg/kg gavage): 63%
effectiveness as PLA2 inhibitor relative to mepacrine [8]: more than 2 log units
inhibition of PLA2 activity [8]: inhibited
pain relief ([9]; patient 1, wrist, about 4% in cream of Example 15, topical): immediate pain relief
pain and range of motion [9, 11]: decreases the patient's report of pain and provides a full range of motion
time to increased range of motion [9, 11]: 10 to 20 min
time to full eversion and inversion ([9]; patient 3, foot and ankle, about 4% cream): ≤ 20 min
pain relief ([9]; patient 3, foot and ankle, about 4% in cream vehicle): immediate and complete pain relief
weight of the tissues after storage [10]: reduced weight
